The values below come from patent publication US12391692B2, “Spiro ring-containing quinazoline compound” (WIGEN BIOMEDICINE TECHNOLOGY (SHANGHAI) CO., LTD., priority 2020, dated 2025).

One may read the IC50 as the midpoint of a concentration-inhibition curve. Usually inhibition stands for the percentage by which the read-out fell short of the control.

For one assay, the system named is H358 cells. Briefly: Antiproliferative activity against H358 cells (Cell Titer Glow, ultra-low attachment plate). The class given is cell-based. To be noted: Homo sapiens, NCI-H358, 72 h, three days after addition of compound. Here is the method: 2500 H358 cells were seeded in a 96-well ultra-low attachment plate (corning, 7007). After one day of growth, a serially diluted compound (a maximum concentration of 5 μM, 5-fold dilution, a total of five doses) was added. Three days after the addition of the compound, Cell Titer Glow (Promega, G9681) was added to evaluate pellet growth, and the IC50 value was calculated.
On the technique in general: ATP-based viability assays read luminescence as a measure of living cells.
In turn, `C=CC(=O)N1CC2(CCN(c3nc(N4CC(C)(N(C)C)C4)nc4c(OCC(F)(F)F)c(-c5c(C)ccc6[nH]ncc56)c(C5CC5)cc34)CC2)C1` [Compound 59] registered a 50% inhibitory concentration (IC50) below 300 nM.

`C=CC(=O)N1CC2(CCN(c3nc(N4CC(C)(N5CCCC5)C4)nc4c(OCC(F)(F)F)c(-c5c(C)ccc6[nH]ncc56)c(C5CC5)cc34)CC2)C1` [Compound 61] registered an IC50 below 300 nM.

With `C=CC(=O)N1CC2(CCN(c3nc(N4CC(C)(CN(C)C)C4)nc4c(OCC(F)(F)F)c(-c5c(C)ccc6[nH]ncc56)c(C5CC5)cc34)CC2)C1` [Compound 62], the IC50 was below 300 nM.

As for `C=CC(=O)N1CC2(CCN(c3nc(N4CC(C)(CN5CCC5)C4)nc4c(OCC(F)(F)F)c(-c5c(C)ccc6[nH]ncc56)c(C5CC5)cc34)CC2)C1` [Compound 63], the IC50 was below 300 nM.

`C=CC(=O)N1CC2(CCN(c3nc(N4CC(C)(CN5CCCC5)C4)nc4c(OCC(F)(F)F)c(-c5c(C)ccc6[nH]ncc56)c(C5CC5)cc34)CC2)C1` [Compound 64] showed an IC50 below 300 nM.

Turning to `C=CC(=O)N1CC2(CCN(c3nc(N4CC5(CC5)C4)nc4c(OCC(F)(F)F)c(-c5c(C)ccc6[nH]ncc56)c(C5CC5)cc34)CC2)C1` [Compound 65], the half-inhibitory concentration (IC50) lay within 300 to 1000 nM.

For the compound `C=CC(=O)N1CC2(CCN(c3nc(N4CC5(CCC5)C4)nc4c(OCC(F)(F)F)c(-c5c(C)ccc6[nH]ncc56)c(C5CC5)cc34)CC2)C1` [Compound 66], the IC50 was in the range of 300 to 1000 nM.

Regarding `C=CC(=O)N1CC2(CCN(c3nc(N4CC5(CCN5C)C4)nc4c(OCC(F)(F)F)c(-c5c(C)ccc6[nH]ncc56)c(C5CC5)cc34)CC2)C1` [Compound 67], the half-maximal inhibitory concentration (IC50) is below 300 nM.

On to `C=CC(=O)N1CC2(CCN(c3nc(N4CC5(CCN5CC(F)(F)F)C4)nc4c(OCC(F)(F)F)c(-c5c(C)ccc6[nH]ncc56)c(C5CC5)cc34)CC2)C1` [Compound 68], for which the IC50 is below 300 nM.

Turning to `C=CC(=O)N1CC2(CCN(c3nc(N4CC5(CCN5CC5CC5)C4)nc4c(OCC(F)(F)F)c(-c5c(C)ccc6[nH]ncc56)c(C5CC5)cc34)CC2)C1` [Compound 69], the half-inhibitory concentration (IC50) was below 300 nM.

For the compound `C=CC(=O)N1CC2(CCN(c3nc(N4CC5(CCN5C5CCC5)C4)nc4c(OCC(F)(F)F)c(-c5c(C)ccc6[nH]ncc56)c(C5CC5)cc34)CC2)C1` [Compound 70], the IC50 is below 300 nM.

As for `C=CC(=O)N1CC2(CCN(c3nc(N4CC5(CCN5C5COC5)C4)nc4c(OCC(F)(F)F)c(-c5c(C)ccc6[nH]ncc56)c(C5CC5)cc34)CC2)C1` [Compound 71], the IC50 is below 300 nM.

Regarding `C=CC(=O)N1CC2(CCN(c3nc(N4CC5(CCN5CCOC)C4)nc4c(OCC(F)(F)F)c(-c5c(C)ccc6[nH]ncc56)c(C5CC5)cc34)CC2)C1` [Compound 72], the IC50 was below 300 nM.

For the compound `C=CC(=O)N1CC2(CCN(c3nc(N4CC5(CCCN5C)C4)nc4c(OCC(F)(F)F)c(-c5c(C)ccc6[nH]ncc56)c(C5CC5)cc34)CC2)C1` [Compound 73], the IC50 was below 300 nM.

Consider `C=CC(=O)N1CC2(CCN(c3nc(N4CC5(CCCN5CCOC)C4)nc4c(OCC(F)(F)F)c(-c5c(C)ccc6[nH]ncc56)c(C5CC5)cc34)CC2)C1` [Compound 74], for which the IC50 was below 300 nM.

For the compound `C=CC(=O)N1CC2(CCN(c3nc(N4CC5(CCCCN5C)C4)nc4c(OCC(F)(F)F)c(-c5c(C)ccc6[nH]ncc56)c(C5CC5)cc34)CC2)C1` [Compound 75], the IC50 lay in the range of 300 to 1000 nM.

In turn, `C=CC(=O)N1CC2(CCN(c3nc(N4CC5(CCCCN5CCOC)C4)nc4c(OCC(F)(F)F)c(-c5c(C)ccc6[nH]ncc56)c(C5CC5)cc34)CC2)C1` [Compound 76] had a concentration for half-maximal inhibition (IC50) below 300 nM.

For the compound `C=CC(=O)N1CC2(CCN(c3nc(N4CCC5(CCN5C)C4)nc4c(OCC(F)(F)F)c(-c5c(C)ccc6[nH]ncc56)c(C5CC5)cc34)CC2)C1` (centres unmarked) [Compound 77], the IC50 was below 300 nM.

Regarding `C=CC(=O)N1CC2(CCN(c3nc(N4CCC5(CCN5CCOC)C4)nc4c(OCC(F)(F)F)c(-c5c(C)ccc6[nH]ncc56)c(C5CC5)cc34)CC2)C1` (centres unmarked) [Compound 78], the IC50 is below 300 nM.

The subject of a further assay is pERK level in H358 cells. Briefly: pERK and ERK protein content assay in H358 cells (ELISA). Particulars: Homo sapiens, NCI-H358, pERK/ERK ratio vs DMSO group, compound 1 μM, 24 h, read-out: Inhibition rate (%). It counts as cell-based. Here is the method: H358 cells were seeded in a 24-well plate. After one day of growth, a test compound (at a concentration of 1 μM) was added. After 24 h of action of the compound, the cells were lysed, and the cell lysate was transferred to a 96-well ELISA plate. The levels of pERK and ERK in the lysate were measured using an ELISA kit (abcam 176660). The ratio of pERK to ERK was calculated and compared with that of the DMSO group, and the percentage of inhibition of pERK activity by the compound was calculated.
For orientation: ELISA stands for enzyme-linked immunosorbent assay.
For the compound `C=CC(=O)N1CC2(CCN(c3nc(N4CC(C)(N(C)C)C4)nc4c(OCC(F)(F)F)c(-c5c(C)ccc6[nH]ncc56)c(C5CC5)cc34)CC2)C1` [Compound 59], the inhibition at 1 µM is above 90%.

As to `C=CC(=O)N1CC2(CCN(c3nc(N4CC(C)(N5CCCC5)C4)nc4c(OCC(F)(F)F)c(-c5c(C)ccc6[nH]ncc56)c(C5CC5)cc34)CC2)C1` [Compound 61], the inhibition at 1 µM was above 90%.

For the compound `C=CC(=O)N1CC2(CCN(c3nc(N4CC(C)(CN(C)C)C4)nc4c(OCC(F)(F)F)c(-c5c(C)ccc6[nH]ncc56)c(C5CC5)cc34)CC2)C1` [Compound 62], the inhibition at 1 µM is above 90%.

Regarding `C=CC(=O)N1CC2(CCN(c3nc(N4CC(C)(CN5CCC5)C4)nc4c(OCC(F)(F)F)c(-c5c(C)ccc6[nH]ncc56)c(C5CC5)cc34)CC2)C1` [Compound 63], the inhibition at 1 µM was above 90%.

As for `C=CC(=O)N1CC2(CCN(c3nc(N4CC(C)(CN5CCCC5)C4)nc4c(OCC(F)(F)F)c(-c5c(C)ccc6[nH]ncc56)c(C5CC5)cc34)CC2)C1` [Compound 64], the inhibition at 1 µM is above 90%.

As to `C=CC(=O)N1CC2(CCN(c3nc(N4CC5(CC5)C4)nc4c(OCC(F)(F)F)c(-c5c(C)ccc6[nH]ncc56)c(C5CC5)cc34)CC2)C1` [Compound 65], the inhibition at 1 µM lay within 50 to 90%.

As to `C=CC(=O)N1CC2(CCN(c3nc(N4CC5(CCC5)C4)nc4c(OCC(F)(F)F)c(-c5c(C)ccc6[nH]ncc56)c(C5CC5)cc34)CC2)C1` [Compound 66], the inhibition at 1 µM lay within 50 to 90%.

With `C=CC(=O)N1CC2(CCN(c3nc(N4CC5(CCN5C)C4)nc4c(OCC(F)(F)F)c(-c5c(C)ccc6[nH]ncc56)c(C5CC5)cc34)CC2)C1` [Compound 67], the inhibition at 1 µM was above 90%.

Turning to `C=CC(=O)N1CC2(CCN(c3nc(N4CC5(CCN5CC(F)(F)F)C4)nc4c(OCC(F)(F)F)c(-c5c(C)ccc6[nH]ncc56)c(C5CC5)cc34)CC2)C1` [Compound 68], the inhibition at 1 µM was above 90%.

Consider `C=CC(=O)N1CC2(CCN(c3nc(N4CC5(CCN5CC5CC5)C4)nc4c(OCC(F)(F)F)c(-c5c(C)ccc6[nH]ncc56)c(C5CC5)cc34)CC2)C1` [Compound 69], for which the inhibition at 1 µM is above 90%.

Take `C=CC(=O)N1CC2(CCN(c3nc(N4CC5(CCN5C5CCC5)C4)nc4c(OCC(F)(F)F)c(-c5c(C)ccc6[nH]ncc56)c(C5CC5)cc34)CC2)C1` [Compound 70]: the inhibition at 1 µM was above 90%.

For `C=CC(=O)N1CC2(CCN(c3nc(N4CC5(CCN5C5COC5)C4)nc4c(OCC(F)(F)F)c(-c5c(C)ccc6[nH]ncc56)c(C5CC5)cc34)CC2)C1` [Compound 71], the inhibition at 1 µM was above 90%.

In the case of `C=CC(=O)N1CC2(CCN(c3nc(N4CC5(CCN5CCOC)C4)nc4c(OCC(F)(F)F)c(-c5c(C)ccc6[nH]ncc56)c(C5CC5)cc34)CC2)C1` [Compound 72], the inhibition at 1 µM is above 90%.

`C=CC(=O)N1CC2(CCN(c3nc(N4CC5(CCCN5C)C4)nc4c(OCC(F)(F)F)c(-c5c(C)ccc6[nH]ncc56)c(C5CC5)cc34)CC2)C1` [Compound 73]: the inhibition at 1 µM was above 90%.

Take `C=CC(=O)N1CC2(CCN(c3nc(N4CC5(CCCN5CCOC)C4)nc4c(OCC(F)(F)F)c(-c5c(C)ccc6[nH]ncc56)c(C5CC5)cc34)CC2)C1` [Compound 74]: the inhibition at 1 µM is above 90%.

`C=CC(=O)N1CC2(CCN(c3nc(N4CC5(CCCCN5C)C4)nc4c(OCC(F)(F)F)c(-c5c(C)ccc6[nH]ncc56)c(C5CC5)cc34)CC2)C1` [Compound 75]: the inhibition at 1 µM was in the range of 50 to 90%.

Consider `C=CC(=O)N1CC2(CCN(c3nc(N4CC5(CCCCN5CCOC)C4)nc4c(OCC(F)(F)F)c(-c5c(C)ccc6[nH]ncc56)c(C5CC5)cc34)CC2)C1` [Compound 76], for which the inhibition at 1 µM was above 90%.

On to `C=CC(=O)N1CC2(CCN(c3nc(N4CCC5(CCN5C)C4)nc4c(OCC(F)(F)F)c(-c5c(C)ccc6[nH]ncc56)c(C5CC5)cc34)CC2)C1` (centres unmarked) [Compound 77], for which the inhibition at 1 µM was above 90%.

As for `C=CC(=O)N1CC2(CCN(c3nc(N4CCC5(CCN5CCOC)C4)nc4c(OCC(F)(F)F)c(-c5c(C)ccc6[nH]ncc56)c(C5CC5)cc34)CC2)C1` (centres unmarked) [Compound 78], the inhibition at 1 µM was above 90%.
